Reference: article PMC6350207 (Drug Metabolism Letters, 2018)

Key:
recombinant UGT enzymes = assay: Reaction phenotyping with recombinant UGT Supersomes; assay type: in vitro ADME, human; details: substrate 20 µM, UGT 0.2 mg/mL, 2 hours
[1] = in humans; cited from earlier work

| SMILES | Metabolism to the corresponding glucuronide by recombinant UGT enzymes (recombinant UGT enzymes) | Share of drug metabolized to its corresponding glucuronide [1] [%] |
| --- | --- | --- |
| CC(C)Cc1ccc(CC(=O)O)cc1 [Ibufenac] | none of the recombinant UGT enzymes studied in the present investigation were found to metabolize ibufenac |  |
| CCCC(CCC)C(=O)O [valproic acid] |  | 50 |
